Values quoted from earlier work, collected in patent US20230172920A1, “DOSING REGIMEN FOR TREATING A DISEASE MODULATED BY CSF-1R” (Novartis AG, priority 2020, published 2023).
Where two headings read alike, the source gives them in different places.

B1: MCS110: monoclonal antibody against CSF-1 ligand (antibody, chains of the INN, looked up, V domains shown)
VH: QVQLQESGPGLVKPSQTLSLTCTVSDYSITSDYAWNWIRQFPGKGLEWMGYISYSGSTSYNPSLKSRITISRDTSKNQFSLQLNSVTAADTAVYYCASFDYAHAMDYWGQGTTVTVSS
VL: DIVLTQSPAFLSVTPGEKVTFTCQASQSIGTSIHWYQQKTDQAPKLLIKYASESISGIPSRFSGSGSGTDFTLTISSVEAEDAADYYCQQINSWPTTFGGGTKLEIK

Legend:
[1] = cited from earlier work
[2] = Phase 2b/3 clinical trial; cited from earlier work

Molecule	serum enzyme increases in clinical trials ([1]; human, in vivo)	other results
FC(F)(F)c1ccc(CNc2ccc(Cc3c[nH]c4ncc(Cl)cc34)cn2)cn1 [PLX3397, reference compound]		serum enzyme increases in clinical trials ([1]; literature reports): Asymptomatic serum enzyme increases
Cc1ccc(NC(=O)c2ccc(CN3CCN(C)CC3)cc2)cc1Nc1nc(-c2cccnc2)cs1 [masitinib]		disease progression in patients with ALS [2]: significant delay of disease progression
FPA008: monoclonal antibody against CSF-1R	Asymptomatic serum enzyme increases	
B1	Asymptomatic serum enzyme increases	
